From patent US5342612A, “Compositions for the treatment of mammalian diseases” (priority 1991, dated 1994) come the findings set out here.

One data set in a line: in vitro. As to conditions: mouse, p388.d1 cells, Relative Toxicity at 6 Hours. Format: cell-based, murine. The method, then: (§1) Cell Lines: A20: B-cell tumor cell line 9C127: T-cell hybridoma cell line LB/62287: B-cell lymphoma cell line P388.D1: Macrophage tumor cell line
(§2) Cell lines (1×10^5 /well; >85% viability) are cultured in 24 well flat bottom plates in RPMI® medium (Gibco Laboratories, Grand Island, N.Y.) supplemented with 10% fetal calf serum, streptomycin (100 μg/mL) and penicillin (100 U/mL). Cultures are incubated (37° C., 10% CO2) with the following concentrations of vehicles:
(§3) c) 1.0%, 0.1% or 0.01% Triacetin or IMWITOR®
(§4) After a 72 hour or 6 hour incubation period, cells are harvested and counted by the Coulter Counter (Northwell Drive, England). Cell viability is determined using a Coulter Channelyzer.
(§5) The relative toxicity of the sample formulations to estimate the relative degree of toxicity for in vivo administration is carried out in vitro with the mammalian cell lines. Various concentrations of the vehicles are incubated for either 6 or 24 hours with the different mammalian cell lines. Immediate toxicity is evaluated at 6 hours by quantitating the number of dead cells in treated wells as compared to the untreated controls. Long term toxicity effects as well as effects which may inhibit cell growth are evaluated by measuring the relative degree of proliferation after an additional 48 hours incubation with ^3 H-thymidine.

The test system of data set [1] is A20 (B-cell tumor cell line). As to the kind of experiment: Toxicity of formulations on mammalian cell lines (cell viability, Coulter). It counts as cell-based, murine. The procedure: as §1, §2, §3, §4, §5
Test in data set [2]: as above
It counts as cell-based, murine. The method, then: as §1, §2, §3, §4, §5

The test system of data set [3] is LB/62287 (B-cell lymphoma cell line). The data set is described as above. It counts as cell-based, murine. The method, then: as §1, §2, §3, §4, §5
In another data set the test system is mammary gland. As to conditions: bovine, in vivo. The method, then: Multiparous Holstein-Fresian dairy cattle cultured negative for infection and with individual quarter somatic cell counts less than 200,000 cells/mL are used. The lactating dairy cows receive a ration consisting of corn silage, alfalfa hay and concentrate which is formulated to provide recommended amounts of minerals and vitamins for a lactating dairy cow. Water is provided ad libitum.
The somatic cell count (SCC) of twelve normal glands are determined prior to treatment. Three groups of four quarters each receive an intramammary infusion of 10 mL to 60 mL of the respective vehicles identified in Example 1, 15% w/v poloxamer 407 NF (PLURONIC® F127), 50% w/v glycerol, 10% w/v triacetin (glyceryl triacetate) and the sPBS as a control. In vivo degree of irritation is measured by infusing a quarter of a mammary gland with the vehicle and measuring the SCC at 12, 36 and 60 hours after infusion. The data are expressed as the stimulation index which is calculated as the average experimental SCC divided by the control SCC.

The next data set has as its system S. aureus. The experiment in a line: Potentiation of bacteriostatic activity of lysostaphin by vehicles (checkered analysis). Format: cell-based, Staphylococcus aureus. The source says: In order to identify the nontoxic formulations for mammalian use, toxicity is employed as a method to eliminate direct bactericidal effects on the S. aureus, as well as potential toxic effects on the target animal. Compounds are formulated with r-lysostaphin at concentrations below toxic effects and compared to the bacteriostatic activity of r-lysostaphin in a saline formulation. Some compounds potentiate r-lysostaphin bacteriostatic activity by as much as 300-1000 fold.
Several surfactants, detergents, oils, emollients and membrane solubilizers are chosen as representative of various classes of compounds which may affect protein activity. These vehicles are then evaluated for toxicity and potentiation of the bacteriostatic effects of r-lysostaphin on S. aureus according to the methods described in the foregoing examples. […] Secondly, the vehicles are subjected to the toxicity test on murine cells in vitro. Viable cells are evaluated by trypan blue exclusion and normalized to an untreated control. Thereafter, dairy cattle are infused through the teat canal with various concentrations of the vehicle to make a determination of the irritation potential after intramammary infusion as a measure of mammalian toxicity. Milk samples are collected after infusion of said vehicles and the somatic cell count is determined. The Stimulation Index equals the post-infusion SCC divided by the pre-infusion SCC. The vehicles showing minimal toxicity to S. aureus and mammalian cells in vitro and in vivo are subsequent candidates for evaluation in the in vivo potentiation trials.
Various vehicle combinations are tested in a standard checkered analysis which simultaneously varies the concentration of both parameters to examine the individual contribution of each. Vehicles are all compared to r-lysostaphin in a saline solution, i.e., the potentiation index. […] Glycerol and triacetin, while only potentiating the activity of r-lysostaphin 6-8 fold, is manifested by bactericidal effects (see above Table IV).

The test system of data set [4] is Staphylococcus aureus mastitis (Newbould 305). The experiment in a line: Efficacy of lysostaphin formulated in vehicles as intramammary infusion against Staphylococcus aureus mastitis. Format: in vivo, bovine (dairy cows). From the text:
This experiment examines the ability of various lysostaphin formulations to eliminate S. aureus infections in the bovine mammary gland and compares the formulations with the testing of lysostaphin in a peanut oil-gel matrix, similar to that used in the commercial product CEFA-LAK®, which is used to treat mastitis in lactating dairy cows.
Lysostaphin is formulated in three vehicles: 15% w/v poloxamer 407 NF, 50% w/v glycerol or 10% w/v triacetin. Lysostaphin is also formulated in a peanut oil-gel matrix. These formulations are infused into the bovine mammary gland and the ability of these combinations to exact a biological response, either by curing the infection or by clearing the mammary gland temporarily of S. aureus, are assessed.
Recombinant lysostaphin is suspended in 10.0 mL of peanut oil vehicle or dissolved in 60.0 mL of appropriate sterile vehicle (sPBS) at a concentration of 10.0 mg/mL or 1.67 mg/mL, respectively. Each of 15% poloxamer 407 NF (PLURONIC® ACID F127, a polyoxyethylene-polyoxypropylene derivative, BASF Corporation, Parsippany, N.J.); 50% glycerol (Sigma Chemical Co., St. Louis, Mo.); and 10% triacetin (glyceryl triacetate, Sigma Chemical Co., St. Louis, Mo.) are prepared in sterile phosphate buffered saline.
Staphylococcus aureus infections of the mammary gland provide an excellent model system for evaluating therapeutic efficacy of a variety of pharmaceutical and biological agents for many infectious diseases of mammals. Therefore, experimental infections are established with S. aureus (strain Newbould 305). All mammary glands to be inoculated are free of pathogens and have individual quarter somatic cell counts (SCC) less than 200,000 cells/mL of milk. Inoculum is prepared from a four-hour culture grown in trypticase soy broth and diluted. Inoculations are made by infusion of 1.0 mL diluted culture containing 90 colony forming units of S. aureus (Newbould 305) into the teat cistern of a milked-out mammary quarter. Quarters which fail to establish an infection after six days from initial inoculation are reinfected.
Prepared in PBS is 50% glycerol and the solution is then sterile filtered (0.45μ). Poloxamer 407 NF is mixed overnight and prepared similarly. A 10% triacetin solution is prepared aseptically in sterile PBS. Appropriate amounts of lysostaphin is added so the final concentration is 1.67 mg/mL. All preparations are in a total volume of 60.0 mL and made the day of the infusion. All solutions are sterile filtered through a 0.45μ filter.
Duration of treatment: 3 consecutive PM milkings
Quarters are randomly assigned to one of six treatment groups. All quarters are infused with the appropriate vehicle (60.0 mL) with or without lysostaphin over three consecutive PM milkings. […]

For a further data set, the system named is S. aureus mastitis. The experiment in a line: Therapy of S. aureus bovine mastitis (background). As to conditions: in vivo efficacy trials; in words.
Setting [5] is: mouse, a20 cells, Relative Toxicity at 6 Hours.

Like-named read-outs stand apart in the source and are kept apart here.

Regarding `CCCCCCCC(=O)OCC(O)CO` (centres unmarked) [IMWITOR ®, Glyceryl monocaprylate], the viability at 6 h lay within 75 to 90% in the data set “in vitro”; 50 to 74% in data set [2] (lb/62287 b-cell lymphoma, LB, 6 h, vehicle 0.01%, read-out: Relative Toxicity at 6 Hours); 25 to 49% in data set [2] (lb/62287 b-cell lymphoma, LB, 6 h, vehicle 0.1%, read-out: Relative Toxicity at 6 Hours); 25 to 49% in data set [2] (lb/62287 b-cell lymphoma, LB, 6 h, vehicle 1.0%, read-out: Relative Toxicity at 6 Hours); 50 to 74% in data set [2] (setting [5]). Besides, the “Relative Toxicity at 6 Hours” value in data set [1] is given as “-”. The “Relative Toxicity at 72 Hours” value in data set [1] is listed as “-”. Further, the viability at 72 h in data set [2] (lb/62287 b-cell lymphoma, LB, 72 h, vehicle 0.01%, read-out: Relative Toxicity at 72 Hours) fell in the range of 50 to 74%; in data set [2] (lb/62287 b-cell lymphoma, LB, 72 h, vehicle 0.1%, read-out: Relative Toxicity at 72 Hours), 0 to 24%; in data set [2] (lb/62287 b-cell lymphoma, LB, 72 h, vehicle 1.0%, read-out: Relative Toxicity at 72 Hours) it was 0 to 24%.

Take `CC(=O)OCC(COC(C)=O)OC(C)=O` [Triacetin, glyceryl triacetate]: the “Relative Toxicity at 6 Hours” value in data set [1] and in data set [3] was “-” throughout. Moreover, the “Relative Toxicity at 72 Hours” value in data set [1] and in data set [3] was “-” throughout. The viability at 6 h fell in the range of 75 to 90% in data set [2] (lb/62287 b-cell lymphoma, Relative Toxicity at 6 Hours) and 75 to 90% in data set [2] (setting [5]). The viability at 72 h in data set [2] (lb/62287 b-cell lymphoma, Relative Toxicity at 72 Hours) was in the range of 0 to 24%. In the data set on mammary gland, the “Tolerability / irritation upon infusion” value is on record as “A small amount of irritation to some animals”. Moreover, the Character of potentiation result in the data set with S. aureus (in words (footnotes, text)) is “Potentiates the bactericidal activity of rlysostaphin”. Moreover, the “Vehicle Conc. w/Max. Potentiation (%)” value with S. aureus (with r-lysostaphin) was 10.0%. For the same compound, the “% Cures” value in data set [4] (100 mg lysostaphin infusions on three consecutive days) was determined as 25%. For the same compound, in data set [4] (in words), the “Effect on potentiating the in vivo efficacy of lysostaphin” value is listed as “Neither glycerol nor triacetin (both have a cure rate of 25%) has any significant effect”.

As for lipopolysaccharide, the “Clearing of the mammary gland of S. aureus” value in the data set with S. aureus mastitis is reported as “able to clear the mammary gland temporarily of S. aureus”.
